Measurements: patent publication US10150760B2, “Compounds for use in preparing heterocyclic triazole agonists of the APJ receptor” (AMGEN INC., priority 2016, dated 2018)

Biological target: human APJ receptor (Homo sapiens (Human), UniProt P35414)
Assay: [35S]GTPγS binding assay on membranes from CHO cells stably expressing human APJ receptor
Type: biochemical
Conditions: read-out: Activity hAPJ SPA EC50 IP
Method in brief: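 Agonist-driven [35S]GTPγS (0.2 nM) binding was measured over 90 min at room temperature on human APJ-expressing CHO membranes with bead capture, in buffer containing 3 μM GDP, 200 mM NaCl and 5 mM MgCl2 (pH 7.5). Excess unlabelled GTPγS (100 μM) gave nonspecific signal; EC50 from non-linear fits.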

Sequence of human APJ receptor (P35414 whole entry): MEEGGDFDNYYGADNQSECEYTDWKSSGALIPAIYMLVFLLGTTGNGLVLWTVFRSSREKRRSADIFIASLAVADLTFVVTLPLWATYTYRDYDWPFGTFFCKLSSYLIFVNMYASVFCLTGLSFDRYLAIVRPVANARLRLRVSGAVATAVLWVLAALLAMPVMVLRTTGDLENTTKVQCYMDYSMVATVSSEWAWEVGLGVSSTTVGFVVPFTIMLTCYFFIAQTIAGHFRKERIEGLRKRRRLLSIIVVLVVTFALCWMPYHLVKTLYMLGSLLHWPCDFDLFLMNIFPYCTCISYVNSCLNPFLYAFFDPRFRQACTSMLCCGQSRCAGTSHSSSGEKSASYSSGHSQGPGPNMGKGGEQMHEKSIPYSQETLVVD

EC50 [nM] | Substance
2.7 | (1R,2S)-1-(5-chloropyrimidin-2-yl)-1-methoxy-N-(4-(1-methylcyclopropyl)-5-((2S,5S)-5-methyltetrahydrofuran-2-yl)-4H-1,2,4-triazol-3-yl)propane-2-sulfonamide or (1R,2S)-1-(5-chloropyrimidin-2-yl)-1-methoxy-N-(4-(1-methylcyclopropyl)-5-((2R,5R)-5-methyltetrahydrofuran-2-yl)-4H-1,2,4-triazol-3-yl)propane-2-sulfonamide [Example 199.0]
290 | (1R,2S)-1-(5-chloropyrimidin-2-yl)-1-methoxy-N-(4-(1-methylcyclopropyl)-5-((2S,5S)-5-methyltetrahydrofuran-2-yl)-4H-1,2,4-triazol-3-yl)propane-2-sulfonamide or (1R,2S)-1-(5-chloropyrimidin-2-yl)-1-methoxy-N-(4-(1-methylcyclopropyl)-5-((2R,5R)-5-methyltetrahydrofuran-2-yl)-4H-1,2,4-triazol-3-yl)propane-2-sulfonamide [Example 200.0]
1400 | (1R,2S)-1-(5-chloropyrimidin-2-yl)-1-methoxy-N-(5-((2S,5S)-5-methyltetrahydrofuran-2-yl)-4-(tetrahydro-2H-pyran-4-yl)-4H-1,2,4-triazol-3-yl)propane-2-sulfonamide or (1R,2S)-1-(5-chloropyrimidin-2-yl)-1-methoxy-N-(5-((2R,5R)-5-methyltetrahydrofuran-2-yl)-4-(tetrahydro-2H-pyran-4-yl)-4H-1,2,4-triazol-3-yl)propane-2-sulfonamide [Example 226.0]
70 | (1R,2S)-1-(5-chloropyrimidin-2-yl)-1-methoxy-N-(5-((2S,5S)-5-methyltetrahydrofuran-2-yl)-4-tetrahydro-2H-pyran-4-yl)-4H-1,2,4-triazol-3-yl)propane-2-sulfonamide or (1R,2S)-1-(5-chloropyrimidin-2-yl)-1-methoxy-N-(5-((2R,5R)-5-methyltetrahydrofuran-2-yl)-4-(tetrahydro-2H-pyran-4-yl)-4H-1,2,4-triazol-3-yl)propane-2-sulfonamide [Example 225.0]
780 | (1R,2S)-1-(5-chloropyrimidin-2-yl)-N-(4-(2,6-dimethoxyphenyl)-5-((3aR,6aR)-hexahydro-3aH-cyclopenta[b]furan-3a-yl)-4H-1,2,4-triazol-3-yl)-1-methoxypropane-2-sulfonamide or (1R,2S)-1-(5-chloropyrimidin-2-yl)-N-(4-(2,6-dimethoxyphenyl)-5-((3aS,6aS)-hexahydro-3aH-cyclopenta[b]furan-3a-yl)-4H-1,2,4-triazol-3-yl)-1-methoxypropane-2-sulfonamide [Example 346.0]
360 | (1R,2S)-1-(5-chloropyrimidin-2-yl)-N-(4-(2,6-dimethoxyphenyl)-5-((3aR,6aR)-hexahydro-3aH-cyclopenta[b]furan-3a-yl)-4H-1,2,4-triazol-3-yl)-1-methoxypropane-2-sulfonamide or (1R,2S)-1-(5-chloropyrimidin-2-yl)-N-(4-(2,6-dimethoxyphenyl)-5-((3aS,6aS)-hexahydro-3aH-cyclopenta[b]furan-3a-yl)-4H-1,2,4-triazol-3-yl)-1-methoxypropane-2-sulfonamide [Example 347.0]
350 | (1R,2S)-1-(5-chloropyrimidin-2-yl)-N-(4-(2,6-dimethoxyphenyl)-5-((R)-1,1-dioxidotetrahydrothiophen-3-yl)-4H-1,2,4-triazol-3-yl)-1-methoxypropane-2-sulfonamide or (1R,2S)-1-(5-chloropyrimidin-2-yl)-N-(4-(2,6-dimethoxyphenyl)-5-((S)-1,1-dioxidotetrahydrothiophen-3-yl)-4H-1,2,4-triazol-3-yl)-1-methoxypropane-2-sulfonamide [Example 187.0]
220 | (1R,2S)-1-(5-chloropyrimidin-2-yl)-N-(4-(2,6-dimethoxyphenyl)-5-((R)-1,1-dioxidotetrahydrothiophen-3-yl)-4H-1,2,4-triazol-3-yl)-1-methoxypropane-2-sulfonamide or (1R,2S)-1-(5-chloropyrimidin-2-yl)-N-(4-(2,6-dimethoxyphenyl)-5-((S)-1,1-dioxidotetrahydrothiophen-3-yl)-4H-1,2,4-triazol-3-yl)-1-methoxypropane-2-sulfonamide [Example 188.0]
1 | (1R,2S)-1-(5-chloropyrimidin-2-yl)-N-(4-(2,6-dimethoxyphenyl)-5-((R)-1,4-dioxan-2-yl)-4H-1,2,4-triazol-3-yl)-1-methoxypropane-2-sulfonamide or (1R,2S)-1-(5-chloropyrimidin-2-yl)-N-(4-(2,6-dimethoxyphenyl)-5-((S)-1,4-dioxan-2-yl)-4H-1,2,4-triazol-3-yl)-1-methoxypropane-2-sulfonamide [Example 197.0]
85 | (1R,2S)-1-(5-chloropyrimidin-2-yl)-N-(4-(4,6-dimethoxypyrimidin-5-yl)-5-((R)-5,5-dimethyltetrahydrofuran-3-yl)-4H-1,2,4-triazol-3-yl)-1-methoxypropane-2-sulfonamide or (1R,2S)-1-(5-chloropyrimidin-2-yl)-N-(4-(4,6-dimethoxypyrimidin-5-yl)-5-((S)-5,5-dimethyltetrahydrofuran-3-yl)-4H-1,2,4-triazol-3-yl)-1-methoxypropane-2-sulfonamide [Example 315.0]
26 | (1R,2S)-1-(5-chloropyrimidin-2-yl)-N-(4-(4,6-dimethoxypyrimidin-5-yl)-5-((R)-5,5-dimethyltetrahydrofuran-3-yl)-4H-1,2,4-triazol-3-yl)-1-methoxypropane-2-sulfonamide or (1R,2S)-1-(5-chloropyrimidin-2-yl)-N-(4-(4,6-dimethoxypyrimidin-5-yl)-5-((S)-5,5-dimethyltetrahydrofuran-3-yl)-4H-1,2,4-triazol-3-yl)-1-methoxypropane-2-sulfonamide [Example 316.0]
33 | (1R,2S)-1-(5-chloropyrimidin-2-yl)-N-(5-((R)-2,3-dihydrobenzo[b][1,4]dioxin-2-yl)-4-(2,6-dimethoxyphenyl)-4H-1,2,4-triazol-3-yl)-1-methoxypropane-2-sulfonamide or (1R,2S)-1-(5-chloropyrimidin-2-yl)-N-(5-((S)-2,3-dihydrobenzo[b][1,4]dioxin-2-yl)-4-(2,6-dimethoxyphenyl)-4H-1,2,4-triazol-3-yl)-1-methoxypropane-2-sulfonamide [Example 258.0]
88 | (1R,2S)-1-(5-chloropyrimidin-2-yl)-N-(5-((R)-2,3-dihydrobenzo[b][1,4]dioxin-2-yl)-4-(2,6-dimethoxyphenyl)-4H-1,2,4-triazol-3-yl)-1-methoxypropane-2-sulfonamide or (1R,2S)-1-(5-chloropyrimidin-2-yl)-N-(5-((S)-2,3-dihydrobenzo[b][1,4]dioxin-2-yl)-4-(2,6-dimethoxyphenyl)-4H-1,2,4-triazol-3-yl)-1-methoxypropane-2-sulfonamide [Example 259.0]
560 | (1R,2S)-1-(5-chloropyrimidin-2-yl)-N-(5-((S)-5,5-dimethyltetrahydrofuran-2-yl)-4-(tetrahydro-2H-pyran-4-yl)-4H-1,2,4-triazol-3-yl)-1-methoxypropane-2-sulfonamide or (1R,2S)-1-(5-chloropyrimidin-2-yl)-N-(5-((R)-5,5-dimethyltetrahydrofuran-2-yl)-4-(tetrahydro-2H-pyran-2-yl)-4H-1,2,4-triazol-3-yl)-1-methoxypropane-2-sulfonamide [Example 221.0]
170 | (1R,2S)-N-(4-(1,3-dimethoxy-2-propanyl)-5-((2R,5R)-5-methyltetrahydro-2-furanyl)-4H-1,2,4-triazol-3-yl)-1-methoxy-1-(5-methoxy-2-pyrazinyl)-2-propanesulfonamide or (1R,2S)-N-(4-(1,3-dimethoxy-2-propanyl)-5-((2S,5S)-5-methyltetrahydro-2-furanyl)-4H-1,2,4-triazol-3-yl)-1-methoxy-1-(5-methoxy-2-pyrazinyl)-2-propanesulfonamide [Example 378.0]
21 | (1R,2S)-N-(4-(1,3-dimethoxy-2-propanyl)-5-((2R,5R)-5-methyltetrahydro-2-furanyl)-4H-1,2,4-triazol-3-yl)-1-methoxy-1-(5-methoxy-2-pyrazinyl)-2-propanesulfonamide or (1R,2S)-N-(4-(1,3-dimethoxy-2-propanyl)-5-((2S,5S)-5-methyltetrahydro-2-furanyl)-4H-1,2,4-triazol-3-yl)-1-methoxy-1-(5-methoxy-2-pyrazinyl)-2-propanesulfonamide [Example 379.0]
33 | (1R,2S)-N-(4-(2,6-dimethoxyphenyl)-5-((R)-1,4-dioxan-2-yl)-4H-1,2,4-triazol-3-yl)-1-ethoxy-1-(5-methylpyrimidin-2-yl)propane-2-sulfonamide or (1R,2S)-N-(4-(2,6-dimethoxyphenyl)-5-((S)-1,4-dioxan-2-yl)-4H-1,2,4-triazol-3-yl)-1-ethoxy-1-(5-methylpyrimidin-2-yl)propane-2-sulfonamide [Example 203.0]
100 | (1R,2S)-N-(4-(2,6-dimethoxyphenyl)-5-((R)-1,4-dioxan-2-yl)-4H-1,2,4-triazol-3-yl)-1-ethoxy-1-(5-methylpyrimidin-2-yl)propane-2-sulfonamide or (1R,2S)-N-(4-(2,6-dimethoxyphenyl)-5-((S)-1,4-dioxan-2-yl)-4H-1,2,4-triazol-3-yl)-1-ethoxy-1-(5-methypyrimidin-2-yl)propane-2-sulfonamide [Example 204.0]
120 | (1R,2S)-N-(4-(2,6-dimethoxyphenyl)-5-((R)-1,4-dioxan-2-yl)-4H-1,2,4-triazol-3-yl)-1-methoxy-1-(5-methylpyrimidin-2-yl)propane-2-sulfonamide or (1R,2S)-N-(4-(2,6-dimethoxyphenyl)-5-((S)-1,4-dioxan-2-yl)-4H-1,2,4-triazol-3-yl)-1-methoxy-1-(5-methylpyrimidin-2-yl)propane-2-sulfonamide [Example 202.0]
